From patent US8076341B2, “Compounds and use thereof” (Vironova AB, priority 2007, dated 2011) come the findings set out here.

Data set [1] relates to human cytomegalovirus (HCMV) strain AD169 and TB 40. Type of data set: cell-based. Conditions: human lung fibroblasts, IE staining.
The subject of the next data set is HCMV. Description: Test of inhibition of HCMV assembly and egress (modified plaque assay, 3 and 5 dpi). Type of data set: cell-based, human cytomegalovirus. Conditions: left until 7 dpi, infected human lung fibroblast cells, IE staining; for Inhibition 3 dpi (%): agent added 3 dpi; for Inhibition 5 dpi (%): agent added 5 dpi.
Data set [2] has as its system infected and uninfected human lung fibroblasts. The data set can be described thus: Toxicity by propidium iodide staining of cell cultures. Type of data set: cell-based. The settings on record: method and source not stated. As for the experimental part: The concentrations of compounds used in the viral experiments were at the μM level. Cellular toxicity for B-220 has been shown for concentrations above 100 μM.

SMILES strings stand for the structures.

Turning to `Cc1cc2nc3c4ccccc4n(CCN(C)C)c3nc2cc1C` [B-220, 2,3-dimethyl-6-(N,N-dimethylaminoethyl)-6H-indolo(2,3-b)quinoxaline], the “Inhibitory effect (%) as % inhibition of infection” value (“Inhibitory effect (%)” below) in data set [1] came to 20%. Also, in the data set on HCMV, the “Inhibition 3 dpi (%)” value was 65-85% and the “Inhibition 5 dpi (%)” value is reported as 65-80%. In addition, in data set [2], the “concentrations at which cellular toxicity has been shown” value was “above 100 μM”.

With `O=C(O)P(=O)(O)O` [Foscavir], the “Inhibitory effect (%)” value in data set [1] was 20-50%. Moreover, in the data set with HCMV, the “Inhibition 3 dpi (%)” value is on record as 85-100% and the “Inhibition 5 dpi (%)” value is given as 65-85%.

For `Nc1nc(O)c2ncn(COC(CO)CO)c2n1` [Ganciclovir], in data set [1], the “Inhibitory effect (%)” value is 20-30%. In the data set with HCMV, the “Inhibition 3 dpi (%)” value turned out to be 100% and the “Inhibition 5 dpi (%)” value is 80-95%.

As to `Cc1oncc1C(=O)Nc1ccc(C(F)(F)F)cc1` [Leflunomide], the “Inhibitory effect (%)” value in data set [1] was 25-50%. Besides, in the data set on HCMV, the “Inhibition 3 dpi (%)” value is recorded as 65-80% and the “Inhibition 5 dpi (%)” value is recorded as 80-90%.
